Like-named read-outs stand apart in the source and are kept apart here. Marks after values point to notes of the source that are not given here. Square brackets hold non-standard residues; d marks the D form. Peptide text beside a SMILES is read from it. * marks the point of attachment. Fmoc = O=C(OCC1c2ccccc2-c2ccccc21)*; Cha = N[C@@H](CC1CCCCC1)C(=O)O; AMC = Cc1cc(=O)oc2cc(N*)ccc12
Columns and labels:
[1] = test system: Tubulin α1 (Tα1) promoter; test: cells
Description: (§1) Dual luciferase expressing CGR8-2Luc cells were obtained by transduction of mouse ESC CGR8 cells with the 2K7 EFS-Renilla Luciferase (RLuc)/Talpha1-Firefly Luciferase (FLuc) vector as previously described (Suter et al. [2006], [2009]); EFS corresponds to the short promoter of the eukaryotic translation elongation factor 1 alpha (EF1α), and Talpha1 to the Tubulin α1 (Tα1) promoter. Tα1 was selected as a promoter active in neurons, including early stages of neural differentiation. EF1α was originally selected to function as a constitutive promoter; however, it responds to cellular differentiation as well as to various chemicals, as previously shown (Kern et al. [2013]). Cells were cultured on 0.1 % gelatin-coated dishes in CGR8-2luc maintenance medium: BHK21 medium, supplemented with 10 % fetal calf serum, L-glutamine, non-essential amino acids, penicillin/streptomycin, and leukemia inhibitory factor (LIF). CGR8 cells were grown in a feeder-independent manner (embryonic pluripotent stem cells, ESCs) as described in protocol 1 (Fig. 1) before testing compounds of interest.
(§2) Fig. 1 Synopsis of experimental protocols. The impact of compounds on neural promoter activity (FLuc, Firefly Luciferase under the control of the Tα1 promoter), general promoter activity (RLuc, Renilla Luciferase under the control of the EF1α promoter), and amount of DNA (PI, propidium iodide fluorescence in cell homogenates) was investigated in undifferentiated mouse embryonic pluripotent stem cells (ESCs) and on ESC-derived neurons. Arrows indicate the time of measurement of the three parameters. a Protocol for testing compounds effects on ESCs. CGR8-2Luc cells were plated on gelatin-coated 96-well plates in maintenance medium (BHK21 medium containing 10 % FCS, L-glutamine, NEAA, P/S, and LIF). Twenty-four hours later, cells were exposed to compounds for forty-eight hours. b Protocol for testing compounds on ESC-derived neurons. CGR8-2Luc cells were co-cultured with MS5 cells to induce neural differentiation in DMEM medium containing 15 % KO-serum, NEAA, β-mercaptoethanol, and P/S. On day 5, cells were detached and seeded on polyornithine-coated plates in DMEM medium containing N2 supplement, bFGF, and P/S; compound exposure was from day 6 to day 8
(§3) To test compounds on ESC-derived neurons, neuronal differentiation was carried out as previously described (Suter et al. [2009]; Xu et al. [2014]). Briefly, CGR8-2Luc cells were seeded on irradiated bone marrow-derived stromal MS5 cells and cultivated for 4 days in DMEM medium containing 15 % Knock-out™ Serum Replacement, non-essential amino acids, beta-mercaptoethanol, and penicillin/streptomycin. At day 5, cells were then re-plated (3 × 10^5 cells/cm^2) on polyornithine-coated 96-well plates in N2 medium containing DMEM, N2 supplement, penicillin/streptomycin, and 10 ng/ml basic human fibroblast growth factor (bFGF) (Invitrogen). […] To assess toxicity of compounds on undifferentiated pluripotent stem cells (ESCs), CGR8-2Luc cells were plated at 45,000 cells/cm^2 on 0.1 % gelatin-coated dishes in BHK21 medium, supplemented with 10 % fetal calf serum, L-glutamine, non-essential amino acids, penicillin/streptomycin, and leukemia inhibitory factor (LIF). After 24 h, compounds were added and incubated for 48 h, before luciferase expression and PI fluorescence were analyzed. In all experiments, methylmercury was used as a positive control at a concentration of 5 µM.
(§4) Luciferase activities were measured with a Dual-Luciferase™ Reporter system kit. CGR8-2Luc ES cells were lysed in 96-well plates according to the manufacturer’s instructions. Luminescence measurements were performed on a Fluostar Optima reader. Luminescence counts were expressed as percentage of promoter activity normalized by comparison with the control wells treated by DMSO.

[2] = test system: ESCs and ESC-derived neurons; test: Dual luminescence reporter test system, all readouts in ESCs and ESC-derived neurons
Description: as §2, with “neurons.” for “neurons. CGR8-2Luc cells were co-cultured with MS5 cells to induce neural differentiation in DMEM medium containing 15 % KO-serum, NEAA, β-mercaptoethanol, and P/S. On day 5, cells were detached and seeded on polyornithine-coated plates in DMEM medium containing N2 supplement, bFGF, and P/S; compound exposure was from day 6 to day 8”
as §3, with “At” for “To test compounds on ESC-derived neurons, neuronal differentiation was carried out as previously described (Suter et al. [2009]; Xu et al. [2014]). Briefly, CGR8-2Luc cells were seeded on irradiated bone marrow-derived stromal MS5 cells and cultivated for 4 days in DMEM medium containing 15 % Knock-out™ Serum Replacement, non-essential amino acids, beta-mercaptoethanol, and penicillin/streptomycin. At”
Luciferase activities were measured with a Dual-Luciferase™ Reporter system kit. CGR8-2Luc ES cells were lysed in 96-well plates according to the manufacturer’s instructions. Luminescence measurements were performed on a Fluostar Optima reader. Luminescence counts were expressed as percentage of promoter activity normalized by comparison with the control wells treated by DMSO. […] parameters were measured in homogenates of ESCs and in ESC-derived neurons: (1) FLuc, reflecting the activity of early neural promoter Tα1. FLuc increases during neuronal differentiation. Many neurotoxic compounds may affect FLuc expression, either through impact on neuronal differentiation, through changes of neuronal gene expression, or through killing of neurons.
(§5) PI was added to cell homogenates after the luciferase test, at a final concentration of 50 µg/ml and incubated for 2 h. After incubation, fluorescence intensity was measured on a Flexstation 3 microplate reader (Excitation: 544 nm ± 15 nm; Emission: 620 nm ± 15 nm). Results are expressed as percentage of control. Propidium iodide (PI) measures total DNA content as an approximation of the cell number. A decrease in PI fluorescence was interpreted as a decrease in cell number and therefore throughout the text referred to as cytotoxicity.
To describe the shape of different concentration–response curves, arbitrary scores were assigned as follows: 0 for “no change,” 1 for “down-stroke,” 2 for “bimodal profile,” and 3 for “up-stroke” (Fig. S1). A curve was classified as “down-stroke” or “up-stroke” if the change in response values comparative to control was statistically significant (p value <0.05, one-way ANOVA with post hoc Dunnett) with an additional requirement of a 30 % decrease or increase of mean response value relative to controls, respectively. If the absolute change in mean response values was below 30 % the curve was classified as “no change.” A curve was classified as “bimodal” if first up-stroke and subsequently down-stroke was observed.

CGR8-2Luc ESCs = test system: CGR8-2Luc ESCs
Description: as §2, §3
as §5, with “After measurement of luciferase activity, DNA quantity was determined by PI assay, as previously described (Xu et al. [2014]). PI was” for “PI was”
(§6) Lowest adverse effect level (LOAEL) was defined as the lowest tested concentrations that lead to a statistically significant decrease for a given read-out (FLuc, RLuc, and PI) compared to baseline. “Baseline” was not in all cases defined by untreated cells, but may also refer to, e.g., a state of increased activity due to low, non-toxic compound concentrations.

ESC-derived neurons = test system: ESC-derived neurons
Description: as §2, §3
as §5, with “After measurement of luciferase activity, DNA quantity was determined by PI assay, as previously described (Xu et al. [2014]). PI was” for “PI was”
as §6

[3] = test system: Tubulin α1 (Tα1) promoter
Description: as §1, §2, §3, §4

EF1α promoter = test system: EF1α promoter
Description: as §1, §2, §3, §4

[4] = ref Dewland et al. ([2009]); cited from earlier work
[5] = ESC-derived neurons, 48 h exposure
[6] = undifferentiated ESCs, 48 h exposure, PI assay (cytotoxicity)
[7] = ESC-derived neurons, 48 h exposure, PI assay (cytotoxicity)
[8] = undifferentiated ESCs, 48 h exposure, lowest tested concentration with statistically significant decrease
[9] = undifferentiated ESCs, 48 h exposure
[10] = reporter activity changes in the non-cytotoxic concentration range, highest possible number 4

| Compound | LOAEL Neurons Tα1 [1, 5] [µM] | result in the dual luminescence reporter test system [2] | Number of non-cytotoxic changes ([2]; mouse, 48 h) | LOAEL ESC DNA (CGR8-2Luc ESCs; [6]) [µM] | LOAEL Neurons DNA (ESC-derived neurons; [7]) [µM] | LOAEL ESC Tα1 [3, 8] [µM] | LOAEL Neurons EF1α (EF1α promoter; [5]) [µM] | LOAEL ESC EF1α (EF1α promoter; [9]) [µM] | Number of non-cytotoxic changes [2, 10] | Concentration in humans [4] | LOAEL Neurons Tα1 ([1]; ESC-derived neurons, 48 h exposure, listed as amiodarone) [µM] | LOAEL Neurons Tα1 ([1]; mouse) [µM] | result in the dual luminescence reporter test system ([2]; ESCs and neurons, FLuc, RLuc, PI) | LOAEL ESC DNA (CGR8-2Luc ESCs; mouse) [µM] | LOAEL Neurons DNA (ESC-derived neurons; mouse) [µM] | LOAEL ESC Tα1 ([3]; mouse) [µM] | LOAEL ESC EF1α (EF1α promoter; mouse) [µM] | LOAEL Neurons EF1α (EF1α promoter; mouse) [µM] |
| --- | --- | --- | --- | --- | --- | --- | --- | --- | --- | --- | --- | --- | --- | --- | --- | --- | --- | --- |
| CC(C1CC1)C(O)(Cn1cncn1)c1ccc(Cl)cc1 (stereo not shown) [Cyproconazole] | >50 | did not give a signal | 0 | >50 | >50 | >50 | >50 | >50 | – | – | – | – | – | – | – | – | – | – |
| Cc1cc(=O)oc2cc(NC(=O)[C@H](CCCCN)NC(=O)[C@H](CC3CCCCC3)NC(=O)OCC3c4ccccc4-c4ccccc43)ccc12 [Galnon] (Fmoc-[Cha]-Lys-{AMC}) | 5 | – | – | 20 | >20 | 20 | 5 | 20 | 2 | – | – | – | – | – | – | – | – | – |
| Exenatide | >0.02 | – | – | >0.02 | >0.02 | >0.02 | >0.02 | >0.02 | 0 | – | – | – | – | – | – | – | – | – |
| CC(C)Cc1ccc(C(C)C(=O)O)cc1 (stereo not shown) [Ibuprofen] | >50 | negative | 0 | >50 | >50 | >50 | >50 | >50 | – | 150^a µM | – | – | – | – | – | – | – | – |
| Cc1ccc(NC(=O)c2ccc(CN3CCN(C)CC3)cc2)cc1Nc1nccc(-c2cccnc2)n1 [Imatinib] | 10 | – | 3 | >10 | >10 | 10 | 10 | >10 | – | – | – | – | – | – | – | – | – | – |
| CCCCc1oc2ccccc2c1C(=O)c1cc(I)c(OCCN(CC)CC)c(I)c1 [Amiodarone] | 50 | – | 1 | – | – | – | – | – | – | – | 5 | – | – | – | – | – | – | – |
| CC(C)(C)C(=O)C(Oc1ccc(Cl)cc1)n1cncn1 (stereo not shown) [Triadimefon] | – | relatively weak responses | – | – | – | – | – | – | – | – | – | >50 | potentially neurotoxic | >50 | >50 | 50 | >50 | 50 |
| COc1cccc2c1C(=O)c1c(O)c3c(c(O)c1C2=O)C[C@@](O)(C(=O)CO)C[C@@H]3O[C@H]1C[C@H](N)[C@H](O)[C@H](C)O1 [Doxorubicin] | 0.005 | strongly decreased the neuronal and general reporter activities, as well as the cell number | 0 | 0.005 | 0.005 | 0.005 | 0.005 | 0.005 | – | – | – | – | – | – | – | – | – | – |
| CCCc1nn(C)c2c(=O)[nH]c(-c3cc(S(=O)(=O)N4CCN(C)CC4)ccc3OCC)nc12 [Sildenafil] | >50 | – | 0 | >50 | >50 | >50 | >50 | >50 | – | – | – | – | – | – | – | – | – | – |
